Here are results for 9 compounds from patent US4731363A, “Thromboxane synthase inhibitors as insulin lowering agents and antiobesity agents” (priority 1986, dated 1988).

Assay [1] has as its target T1, thromboxane synthase (Human Platelet Microsomes) (Homo sapiens, UniProt P24557).
T1 construct: Platelets were obtained from 320 ml of whole blood and resuspended in 5.0 ml of Krebs-Hensleit buffer; from tissue; host or cells: human platelets (microsomes, 110,000 g pellet)
T1 sequence (P24557 1-533): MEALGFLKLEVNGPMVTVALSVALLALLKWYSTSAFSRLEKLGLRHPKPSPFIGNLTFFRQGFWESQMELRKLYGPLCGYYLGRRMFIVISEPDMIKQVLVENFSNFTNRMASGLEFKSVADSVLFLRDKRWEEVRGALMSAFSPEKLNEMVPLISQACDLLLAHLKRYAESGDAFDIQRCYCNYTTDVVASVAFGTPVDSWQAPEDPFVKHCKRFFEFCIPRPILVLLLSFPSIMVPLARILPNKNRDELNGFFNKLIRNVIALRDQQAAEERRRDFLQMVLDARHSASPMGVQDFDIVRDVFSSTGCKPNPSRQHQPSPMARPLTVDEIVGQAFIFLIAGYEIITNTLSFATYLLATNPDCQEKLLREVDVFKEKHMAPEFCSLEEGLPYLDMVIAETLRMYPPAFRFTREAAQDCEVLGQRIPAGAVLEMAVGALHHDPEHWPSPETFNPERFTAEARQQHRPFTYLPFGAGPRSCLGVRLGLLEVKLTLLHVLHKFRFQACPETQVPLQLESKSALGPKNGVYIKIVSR
The experiment in a line: Thromboxane synthase inhibition, human platelet microsomes. It counts as biochemical. The conditions noted are these: enzyme source H = Human Platelet Microsomes; read-out: IC50. How it is done: In said assay procedure, microsomes from guinea pig lung or human platelets are added to an endoperoxide intermediate in prostaglandin biosynthesis and the inhibitor in phosphate buffer solution followed by incubation, extraction and determination of the extent of thromboxane synthase inhibition by TLC with radiochromatographic profile analysis.
(§1) Determination of Inhibition of Thromboxane Synthase Activity Isolation of Human Platelet Microsomes
Platelets were obtained from 320 ml of whole blood and resuspended in 5.0 ml of Krebs-Hensleit buffer (CA^+2 free). After three consecutive freeze-thawing cycles, homogenization and centrifugation at 12,000 g for 45 min., the 12,000 supernatant was recentrifuged at 110,000 g for 60 min. The resultant pellet was resuspended in phosphate buffer (0.5 ml, 0.1M, pH 7.5) and stored at -70° until use.
(§2) Low specific activity PGH2 (3.3 μCi/μmole) was obtained from Dr. W. E. M. Lands of the University of Michigan. PGH2 of higher specific activity (16.0 μCi/μmole) was purchased from Ran Biochemicals, Tel-Aviv, Israel.
(§3) The inhibitors tested were prepared as solutions (1-10 mg/ml) in 95% ethanol.
(§4) Assay for Thromboxane Synthase
(§5) To a 12×75 mm tube containing [1-^14 C] PGH2 (2 μg, 0.01 μCi or 0.05 μCi) and inhibitor (1 mM final assay concentration, in 10 μl of ethanol) in 225 μl of phosphate buffer (0.1M, pH 7.5), was added to an aliquot of guinea pig lung microsomes (25 μl, containing 400 μg protein) or an aliquot of human platelet microsomes (25 μl, containing .congruent.[…] protein). The solution was incubated in a 22° water bath for 2 min.; ether (1 ml) and citric acid (25 μMoles) were added, and the tube plunged into an acetone-dry ice bath. The ether extract was transferred to a 1.0 ml Reacti-vial, and the volume reduced under nitrogen to .congruent.50 μl.
(§6) The extract was applied to an I.T.L.C., type SG, glass fiber sheet (Gelman Instrument Co., Ann Arbor, Mich.) and developed in isooctane; methyl ethyl ketone: acetic acid (100:19:1 or 100:9:1) (19). The sheets were air dried and scanned using a Berthold LB 2760 Radiochromatographic Scanner. In certain cases, based on the radiochromatographic profile obtained, the sheets were cut, the appropriate regions placed in scintillation vials, 10 ml of LSC cocktail (Yorktown Research, S. Hackensack, NJ) added, and the relative cpm determined.

Assay [2] has as its system thromboxane synthase from human platelets. The following applies: highest potency among the imidazole derivatives tested; read-out: I50; cited from earlier work.
In a further assay the target is TXA2 Synthase. The experiment in a line: TXA2 synthase IC50 as listed in Table I (enzyme source not stated). Format: biochemical. How it is done:
as §1, §4, §5, §6

In assay [3] the target is T2, thromboxane synthase (Guinea Pig Lung Microsomes) (Cavia porcellus, UniProt H0UT36).
T2 construct: The lungs were removed, freed of trachea and the majority of blood removed by rinsing the lungs with buffer; from tissue; host or cells: lungs of male guinea pigs (microsomes, 110,000 g pellet)
T2 sequence (H0UT36 entry or part of it): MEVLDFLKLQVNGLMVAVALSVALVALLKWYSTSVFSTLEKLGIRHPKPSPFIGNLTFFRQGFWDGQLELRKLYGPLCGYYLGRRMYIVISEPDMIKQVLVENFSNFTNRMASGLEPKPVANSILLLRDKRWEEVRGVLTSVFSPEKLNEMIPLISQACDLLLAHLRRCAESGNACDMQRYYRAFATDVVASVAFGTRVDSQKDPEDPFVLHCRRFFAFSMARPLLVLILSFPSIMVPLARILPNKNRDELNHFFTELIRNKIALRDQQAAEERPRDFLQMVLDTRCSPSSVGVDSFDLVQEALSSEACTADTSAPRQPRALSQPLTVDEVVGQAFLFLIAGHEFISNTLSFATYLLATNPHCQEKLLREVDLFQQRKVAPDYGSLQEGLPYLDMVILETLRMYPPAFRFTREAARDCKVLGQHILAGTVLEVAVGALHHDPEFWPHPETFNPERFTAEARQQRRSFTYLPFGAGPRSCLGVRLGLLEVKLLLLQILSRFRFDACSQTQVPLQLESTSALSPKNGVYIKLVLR
The experiment in a line: biochemical. The following applies: enzyme source G = Guinea Pig Lung Microsomes; read-out: IC50. How it is done: In said assay procedure, microsomes from guinea pig lung or human platelets are added to an endoperoxide intermediate in prostaglandin biosynthesis and the inhibitor in phosphate buffer solution followed by incubation, extraction and determination of the extent of thromboxane synthase inhibition by TLC with radiochromatographic profile analysis. […]
Isolation of Guinea Pig Lung Microsomes
Four male guinea pigs (.congruent.500 g each) were sacrificed by spinal dislocation. The lungs were removed, freed of trachea and the majority of blood removed by rinsing the lungs with buffer (0.1M phosphate pH 7.5) via the pulmonary artery. The lung tissue (18.3 g total wet wt.), was then minced, suspended in three volumes of buffer and homogenized using, initially, a Brinkmann polytron homogenizer and, finally, a glass-teflon tissue grinder. The homogenate was centrifuged at 12,000 g for 1 hr. and the resultant supernatant recentrifuged at 110,000 g for 1 hr. The 110,000 g pellet was taken up in 10 ml of buffer, divided into 5×2 ml aliquots and stored at -70° until use.
as §2, §3, §4, §5, §6

Assay [4] has as its system isolated perfused rat pancreas. The experiment in a line: Insulin secretion by isolated perfused rat pancreas. Set-up: key: insulin AUC ratio: 1st glucose pulse / 2nd pulse with compound. The conditions noted are these: 16.7 mM glucose, control 1.0 ± 0.04 (n = 5). How it is done: Determination of Insulin-Secretory Activity in the Isolated Perfused Rat Pancreas
Pancreata were obtained from young adult female Charles River rats weighing from 200-300 g. The animals were anaesthesized with sodium pentobarbitol (45 mg/kg), injected intraperitoneally, and the pancreas with its intact vasculature was removed and connected to an extracorporeal perfusion apparatus.
The basic perfusion solution contained: 133 mM NaCl, 4.4 mM KCl, 2.5 mM MgSO4, 2.4 mM Ca gluconate, 1.5 mM KH2 PO4, 29.4 mM NaHCO3, 4% dextran and 0.2% bovine serum albumin and glucose as discussed below. The perfusion flow rate was kept constant at 4 ml/min. After a 15-20 min equilibration period, the experimental protocol was begun. The pancreatic effluent was collected in either one or four-minute fractions.
The perfusion was run in the following sequence:
30 min 16.7 mM glucose-internal control
30 min 16.7 mM glucose and test compound
5 min 20 mM arginine-to check pancreas viability
Test compounds were dissolved in 90% ethanol to a concentration of 25 mM and then diluted in the perfusion buffer to the desired concentration. The perfusion effluent was collected in one or four min fractions-the samples were checked immediately, aliquoted for submission to radioimmunoassay and stored at -20° C. until the time of assay. The radioimmunoassay of insulin was carried out by a back-titration method using a pure rat insulin standard.
To assess the inhibitory activity of the test compounds, an inhibition index was calculated. The inhibition index is derived by comparing the insulin secretion response from treated versus nontreated pancreas preparations. For each preparation, a ratio of insulin secretion was calculated from the area under the insulin secretion curve of the first pulse of 16.7 mM glucose divided by the area under the curve of the second pulse of 16.7 mM glucose containing compound.

For assay [5], the system named is thromboxane synthetase (rabbit platelet microsomes). The conditions noted are these: result in words; cited from earlier work.
For the next assay, the system named is obese Zucker rats. The experiment in a line: Antiobesity activity in vivo in obese Zucker rats. The following applies: 16 to 18 days; for Body Weight Gain: treated minus control. On the set-up: species or system rat. How it is done:
Determination of Antiobesity Activity
Thromboxane synthase inhibitors were evaluated for antiobesity activity in vivo. Body weight, food intake and circulating insulin levels were monitored during periods of drug treatment. Analysis of carcass composition was performed at study termination.
Animals, Diets and Drug Administration
Lean and obese male and female Zucker rats bred at Hoffmann-La Roche Inc. (Nutley, NJ) were kept in wire-bottomed individual cages in light (12 hr dark and light cycles beginning at 6 p.m. and 6 a.m., respectively) and temperature-controlled (22°) rooms. All rats were fed chow diet (Ralston Purina Co., St. Louis, MO) ad libitum until one to three weeks before the start of drug treatment, at which time they were trained to consume a high glucose low fat (1% corn oil) diet which is herein referred to as G-70:1% CO. Following the one to three-week training period on G-70:1% CO, the average daily food intake was calculated, and the rats were weighed and divided into groups of four to seven rats each.
The control animals continued to eat the G-70:1% CO diet ad libitum, and the experimental groups were given G-70:1% CO diet containing drug (also fed ad libitum). The amount of drug added to the diet of each experimental group was based on calculations of food consumed per kg body weight using data collected at the end of the training period. […] The period of drug treatment ranged from 16 to 18 days as noted in the legends to the tables and graph. Food intake and body weight were recorded either daily or twice a week throughout the duration of the study. The amount of drug administered was calculated from the food intake per kg body weight for each experimental group. Body weight data are reported as the difference between the body weight gains of control and drug-treated animals. Food intake and insulin data are reported as percent of control.
^a Average duration of treatment was 16 to 18 days.
^b Body weight gain was computed by taking the difference between the
weight gain of treated and control rats.

Where “and” joins values, the source holds several entries; their conditions need not be identical. Equal values may be shown once.

On to `CC(C)c1ccccc1-n1ccnc1` [1-[2-(1-methylethyl)phenyl]-1H--imidazole], for which the results for the IC50 in assay [1] and in assay [2] were ~1 µM and ~0.01 µM, respectively.

As to `c1ccc(C(c2ccccc2)(c2ccccc2)n2ccnc2)cc1` [1-(triphenylmethyl)-1H--imidazole, 1-(triphenylmethyl)-1H-imidazole], the IC50 (against TXA2 Synthase; in assay [1]; in assay [3]) was 10 to 100 µM each time. For the same compound, the “Insulin Secretion Inhibition Index” value in assay [4] (10 μM) is listed as 2.

For `c1ccncc1` [pyridine], in assay [5], the “enzymatic formation of TXB2 from PGH2” value is on record as “inhibition”.

`S=C(n1ccnc1)n1ccnc1` [1,1'-carbonothioylbis-1H--imidazole, 1,1'-carbonothioylbis-1H-imidazole]: the results for the IC50 (against TXA2 Synthase; in assay [3]) were 15 µM and 10 to 100 µM, respectively. Moreover, the “Insulin Secretion Inhibition Index” value in assay [4] (1000 μM) amounted to 5.

Consider `CCCCCCCCCn1ccnc1` [1-nonyl-1H--imidazole], for which the IC50 in assay [2] was ~0.01 µM.

`CC(C)Oc1ccc(-n2ccnc2)cc1` [1-[4-(1-methylethoxy)phenyl]-1H-imidazole]: the IC50 against TXA2 Synthase was 10 µM. In addition, in the assay on obese Zucker rats (82 mg/kg in diet, P ≤ 0.05), the “Food Consumption” value is 80 ± 2 % of control and the “Body Weight Gain” value is listed as -18 g. For the same compound, the Insulin in the assay on obese Zucker rats (82 mg/kg in diet, not marked significant) is given as 94 ± 21 % of control. Further, the IC50 in assay [1] is ~10 µM. In addition, in assay [4] (100 μM), the “Insulin Secretion Inhibition Index” value amounted to 4.

Regarding `CC(C)c1[nH]c2ccccc2c1C(=O)c1cccnc1` [[2-(1-methylethyl)-1H-indol-3-yl)]-3-pyridinyl-methanone], the IC50 against TXA2 Synthase is 1 µM; in assay [1], ~1 µM. The “Food Consumption” value with obese Zucker rats (94 mg/kg in diet, not marked significant) is listed as 89 ± 4 % of control. In addition, in the assay with obese Zucker rats (94 mg/kg in diet, P ≤ 0.05), the “Body Weight Gain” value is recorded as -17 g. In assay [4] (100 μM), the “Insulin Secretion Inhibition Index” value is recorded as 5.

With `c1c[nH]cn1` [1H--imidazole, reference compound], the IC50 against TXA2 Synthase is 600 µM; in assay [3] it was > 100 µM and < 1000 µM. The “Insulin Secretion Inhibition Index” value was 2 in assay [4] (100 μM) and 3 in assay [4] (1000 μM).

On to `c1ccc2c(Cn3ccnc3)c[nH]c2c1` [3-(1H--imidazol-1-ylmethyl)-1H--indole, 3-(1H-imidazol-1-ylmethyl)-1H-indole], for which the IC50 at TXA2 Synthase was 1 µM; in assay [1], ~1 µM. In addition, the “Food Consumption” value with obese Zucker rats (18 mg/kg in diet, P ≤ 0.05) is recorded as 81 ± 1 % of control; in the assay with obese Zucker rats (55 mg/kg in diet, P ≤ 0.05), 63 ± 4 % of control. The Insulin in the assay with obese Zucker rats (18 mg/kg in diet, P ≤ 0.05) is on record as 72 ± 9 % of control; in the assay with obese Zucker rats (55 mg/kg in diet, P ≤ 0.05), 12 ± 2 % of control. Besides, the “Body Weight Gain” value with obese Zucker rats (18 mg/kg in diet, P ≤ 0.05) is on record as -24 g; with obese Zucker rats (55 mg/kg in diet, P ≤ 0.05) it was -68 g. Besides, the “Insulin Secretion Inhibition Index” value was found to be 1 in assay [4] (10 μM), 13 in assay [4] (50 μM) and 32 in assay [4] (100 μM).
